Laboratory results: patent US11999727B2 (Tango Therapeutics, Inc., priority 2020, dated 2024)

Experiments:
[1] = molecular target: T1, PRMT5 (Homo sapiens, UniProt O14744); assay: PRMT5 biochemical IC50 assay with no cofactor; details: PRMT5, no cofactor
T1 construct: purchased Viva (custom protein)
Excerpt: Table 1 indicates IC50 values (μM) against PRMT5 for exemplary compounds in the presence of SAM as cofactor, with no cofactor, and with MTA as cofactor, respectively (columns 4-6). […] Ki values can be calculated from the IC50 values as described in the Examples section. As detailed in the Examples section, for the assay performed in the presence of SAM, IC50=Ki×1.5 (Ki=IC50/1.5).

[2] = system: HAP1 MTAP-deleted cell line; assay: SDMA in-cell western assay, HAP1 MTAP-deleted; type: cell-based; details: for IC50: Homo sapiens, HAP1, SDMA in-cell western, HAP1 MTAP-deleted; for MTAP intact/deleted ratio: SDMA in-cell western
Outline: (§1)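 Compounds were tested in HAP1 cells differing only in MTAP status (endogenous expression versus null). Cellular SDMA levels were then measured by in-cell western, giving an IC50 in each background.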

[3] = molecular target: T1, PRMT5; assay: PRMT5 biochemical IC50 assay with SAM as cofactor; details: PRMT5, SAM as cofactor; read-out: SAM IC50
[4] = system: HAP1 MTAP-deleted cell line; assay: Viability assay, MTAP-deleted cell line; type: cell-based; details: Homo sapiens, read-out: HAP1 MTAP deleted viability
Excerpt: Table 1 additionally indicates IC50 values in a viability assay for the MTAP-deleted cell line (column 10), indicating the effect of treatment with compound on cell survival.

[5] = molecular target: T1, PRMT5; assay: PRMT5 biochemical IC50 assay with MTA as cofactor; details: PRMT5, MTA as cofactor; read-out: MTA IC50
[6] = system: HAP1 MTAP-intact cell line; assay: SDMA in-cell western assay, HAP1 MTAP-intact; type: cell-based; details: Homo sapiens, HAP1, SDMA in-cell western, HAP1 MTAP-intact; read-out: MTAP HAP1 intact IC50
Outline: as §1

[7] = read-out: No Cofactor/ rel IC50
[8] = read-out: HAP 1 MTAP deleted IC50
[9] = IC50 ratio HAP1 MTAP-intact / HAP1 MTAP-deleted
[10] = HAP1, viability assay, MTAP-deleted cell line
[11] = read-out: HAP1 MTAP deleted IC50
[12] = HAP1, viability assay, HAP1 MTAP-deleted
[13] = HAP1, viability, HAP1 MTAP-deleted cell line
[14] = IC50 ratio HAP1 MTAP-intact vs HAP1 MTAP-deleted
[15] = HAP1, viability IC50, MTAP-deleted cell line

T1 sequence (O14744 whole entry): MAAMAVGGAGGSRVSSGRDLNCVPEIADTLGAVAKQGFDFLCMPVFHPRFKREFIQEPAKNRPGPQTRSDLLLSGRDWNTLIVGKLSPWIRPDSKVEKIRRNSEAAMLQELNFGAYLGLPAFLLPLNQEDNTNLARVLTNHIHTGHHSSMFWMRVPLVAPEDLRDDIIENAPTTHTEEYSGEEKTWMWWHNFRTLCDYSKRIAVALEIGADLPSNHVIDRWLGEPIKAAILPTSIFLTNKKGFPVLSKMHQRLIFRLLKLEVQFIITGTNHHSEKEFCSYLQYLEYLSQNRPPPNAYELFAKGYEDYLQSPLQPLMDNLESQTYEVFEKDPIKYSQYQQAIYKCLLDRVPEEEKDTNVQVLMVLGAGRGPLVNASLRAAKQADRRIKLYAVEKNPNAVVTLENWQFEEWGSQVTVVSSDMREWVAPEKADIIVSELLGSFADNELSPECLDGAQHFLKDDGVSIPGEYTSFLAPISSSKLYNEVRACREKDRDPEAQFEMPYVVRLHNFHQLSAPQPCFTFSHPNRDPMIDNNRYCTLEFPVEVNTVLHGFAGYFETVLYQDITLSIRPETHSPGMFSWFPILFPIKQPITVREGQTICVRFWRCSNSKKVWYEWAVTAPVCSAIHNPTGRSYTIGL
T1 sequence (Q9BQA1 whole entry partner): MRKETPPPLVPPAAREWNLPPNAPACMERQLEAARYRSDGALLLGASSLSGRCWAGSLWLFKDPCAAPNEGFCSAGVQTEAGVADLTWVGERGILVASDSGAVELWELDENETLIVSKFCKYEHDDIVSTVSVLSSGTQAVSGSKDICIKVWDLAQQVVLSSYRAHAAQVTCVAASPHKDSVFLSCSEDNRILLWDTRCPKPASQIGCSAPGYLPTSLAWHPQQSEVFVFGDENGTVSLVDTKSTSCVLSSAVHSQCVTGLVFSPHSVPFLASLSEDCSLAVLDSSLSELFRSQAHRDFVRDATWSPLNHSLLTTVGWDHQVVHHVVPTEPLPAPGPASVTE

Row | SMILES | IC50 [1, 7] | IC50 [2, 8] | IC50 [3] | IC50 [5] | IC50 [6] | IC50 ([1]; read-out: No Cofactor/rel IC50) | IC50 [2, 11] | MTAP intact/deleted ratio [2, 9] | IC50 [4, 10] | IC50 [4, 12] | IC50 [4, 13] | MTAP intact/deleted ratio [2, 14] | IC50 [4, 15]
1 | CCc1cc(NC(=O)C(=O)N2C[C@@H](C)CC[C@@H]2c2ccc(N3CCN(C(C)C)CC3)c(C)c2)cnc1N (racemic) [Compound 1163, N-(6-Amino-5-ethyl-3-pyridyl)-2-oxo-2-[rac-(2R,5S)-2-[4-(4-isopropylpiperazin-1-yl)-3-methyl-phenyl]-5-methyl-1-piperidyl]acetamide] | – | – | < 0.05 µM | < 0.05 µM | 0.1 to 1 µM | < 0.05 µM | < 0.1 µM | – | < 1 µM | – | – | A (an IC50 ratio greater than or equal to 10 fold) | –
2 | C[C@@H]1CC[C@@H](c2cc(Cl)cc(Cl)c2)N(C(=O)C(=O)Nc2cncc(C(N)=O)c2)C1 (racemic) [Compound 206, rac-5-{2-[(2R,5S)-2-(3,5-Dichlorophenyl)-5-methylpiperidin-1-yl]-2-oxoacetamido}pyridine-3-carboxamide] | – | – | 0.05 to 0.5 µM | < 0.05 µM | > 1 µM | 0.05 to 0.5 µM | 0.1 to 1 µM | A (an IC50 ratio greater than or equal to 10 fold) | 1 to 10 µM | – | – | – | –
3 | CCc1cc(NC(=O)C(=O)N2C[C@@H](C)CC[C@@H]2c2cccc(C[C@H]3CCCCN3C)c2)cnc1N (single isomer, unassigned) [Compound 1273] | < 0.05 µM | < 0.1 µM | 0.05 to 0.5 µM | < 0.05 µM | 0.1 to 1 µM | – | – | A (an IC50 ratio greater than or equal to 10 fold) | – | – | < 1 µM | – | –
4 | COc1ncc(NC(=O)C(=O)N2C[C@H](C)CC[C@H]2c2ccn(-c3cc[nH]n3)n2)cc1C(N)=O (single isomer, unassigned) [Compound 894] | – | < 0.1 µM | 0.05 to 0.5 µM | < 0.05 µM | > 1 µM | 0.05 to 0.5 µM | – | A (an IC50 ratio greater than or equal to 10 fold) | 1 to 10 µM | – | – | – | –
5 | C[C@@H]1CC[C@@H](c2ccc(F)cc2)N(C(=O)C(=O)Nc2cnc(OC(F)(F)F)c(C(N)=O)c2)C1 (racemic) [Compound 818, rac 5-[[2-[(2R,5S)-2-(4-fluorophenyl)-5-methyl-1-piperidyl]-2-oxo-acetyl]amino]-2-(trifluoromethoxy)pyridine-3-carboxamide] | – | – | 0.05 to 0.5 µM | 0.05 to 0.5 µM | > 1 µM | 0.05 to 0.5 µM | 0.1 to 1 µM | A (an IC50 ratio greater than or equal to 10 fold) | – | > 10 µM | – | – | –
6 | Cc1ncc(NC(=O)C(=O)N2C[C@H](C)CC[C@H]2c2ccc3c(c2)CCC(=O)N3)cc1Cl (racemic) [Compound 639, N-(5-Chloro-6-methyl-3-pyridyl)-2-[(2R,5S)-5-methyl-2-(2-oxo-3,4-dihydro-1H-quinolin-6-yl)-1-piperidyl]-2-oxo-acetamide] | – | < 0.1 µM | 0.05 to 0.5 µM | 0.05 to 0.5 µM | > 1 µM | 0.05 to 0.5 µM | – | A (an IC50 ratio greater than or equal to 10 fold) | – | – | – | – | 1 to 10 µM
7 | Cc1cc(NC(=O)C(=O)N2CCCC[C@@H]2C2CCCCC2)cnc1N (single isomer, unassigned) [Compound 42] | 0.05 to 0.5 µM | < 0.1 µM | 0.05 to 0.5 µM | < 0.05 µM | > 1 µM | – | – | A (an IC50 ratio greater than or equal to 10 fold) | 1 to 10 µM | – | – | – | –
8 | Cc1cncc(NC(=O)C(=O)N2C[C@H](C)CC[C@H]2c2cccc(F)c2)c1 (racemic) [Compound 70, rac-2-[(2S,5R)-2-(3-fluorophenyl)-5-methyl-1-piperidyl]-N-(5-methyl-3-pyridyl)-2-oxo-acetamide] | > 0.5 µM | > 1 µM | > 0.5 µM | 0.05 to 0.5 µM | > 1 µM | – | – | C (an IC50 ratio of less than 3 fold) | > 10 µM | – | – | – | –

Further lines, with some results ahead:

Row | IC50 [1, 7] | IC50 [2, 8] | IC50 [3] | IC50 [5] | IC50 [6] | IC50 ([1]; read-out: No Cofactor/rel IC50) | IC50 [2, 11] | SMILES | MTAP intact/deleted ratio [2, 9] | IC50 [4, 10] | IC50 [4, 12] | IC50 [4, 13] | MTAP intact/deleted ratio [2, 14] | IC50 [4, 15]
9 | > 0.5 µM | > 1 µM | 0.05 to 0.5 µM | 0.05 to 0.5 µM | > 1 µM | – | – | Cc1ncc([C@@H]2CC[C@@H](C)CN2C(=O)C(=O)Nc2cnc(N)c(C)c2)cn1 (racemic) [Compound 107, rac-N-(6-amino-5-methylpyridin-3-yl)-2-((2R,5S)-5-methyl-2-(2-methylpyrimidin-5-yl)piperidin-1-yl)-2-oxoacetamide] | C (an IC50 ratio of less than 3 fold) | > 10 µM | – | – | – | –
10 | – | – | > 0.5 µM | > 0.5 µM | > 1 µM | > 0.5 µM | > 1 µM | Cc1cc(NC(=O)C(=O)N2C[C@H](C)CC[C@H]2c2ccc3[nH]c(=O)ccc3c2)cnc1N (single isomer, unassigned) [Compound 763] | B (an IC50 ratio greater than or equal to 3 fold but lower than 10 fold) | – | > 10 µM | – | – | –
11 | – | – | > 0.5 µM | > 0.5 µM | > 1 µM | > 0.5 µM | > 1 µM | Cc1nc2cc([C@@H]3CC[C@@H](C)CN3C(=O)C(=O)Nc3cnc(N)c(C)c3)ccc2s1 (single isomer, unassigned) [Compound 730] | C (an IC50 ratio of less than 3 fold) | – | > 10 µM | – | – | –
12 | – | < 0.1 µM | 0.05 to 0.5 µM | < 0.05 µM | > 1 µM | 0.05 to 0.5 µM | – | Cc1cc(NC(=O)C(=O)N2C[C@H](C)CC[C@H]2c2ccc3[nH]c(N)nc3c2)cnc1C (racemic) [Compound 992] | A (an IC50 ratio greater than or equal to 10 fold) | 1 to 10 µM | – | – | – | –
13 | > 0.5 µM | 0.1 to 1 µM | > 0.5 µM | > 0.5 µM | > 1 µM | – | – | Cc1cc(NC(=O)C(=O)N2C[C@H](C)CC[C@H]2c2cccc(C3CCN(C)CC3)c2)cnc1N (single isomer, unassigned) [Compound 1291] | – | – | – | > 10 µM | – | –
14 | – | – | < 0.05 µM | < 0.05 µM | < 0.1 µM | < 0.05 µM | < 0.1 µM | CCc1cc(NC(=O)C(=O)N2CC(C)CCC2c2ccc3sc(C4CCN(C)CC4C)nc3c2)cnc1N (racemic) [Compound 1098, N-(6-amino-5-ethyl-3-pyridyl)-2-oxo-2-[rac-(2R,5S)-5-methyl-2-[2-[rac-(3R,4S)-1,3-dimethyl-4-piperidyl]-1,3-benzothiazol-5-yl]-1-piperidyl]acetamide] | – | < 1 µM | – | – | B (an IC50 ratio greater than or equal to 3 fold but lower than 10 fold) | –
15 | – | > 1 µM | > 0.5 µM | > 0.5 µM | > 1 µM | > 0.5 µM | – | Cc1cc(NC(=O)C(=O)N2C[C@@H](C)CC[C@@H]2c2cnc3[nH]ncc3c2)cnc1N (single isomer, unassigned) [Compound 573] | C (an IC50 ratio of less than 3 fold) | – | – | – | – | > 10 µM
16 | – | – | < 0.05 µM | < 0.05 µM | 0.1 to 1 µM | < 0.05 µM | < 0.1 µM | Cc1cc(NC(=O)C(=O)N2C[C@@H](C)CC[C@@H]2c2ccc3sc([C@H]4CCN(C)C(C)(C)C4)nc3c2)cnc1C (single isomer, unassigned) [Compound 1135] | – | < 1 µM | – | – | A (an IC50 ratio greater than or equal to 10 fold) | –
17 | – | – | < 0.05 µM | < 0.05 µM | < 0.1 µM | < 0.05 µM | < 0.1 µM | CCc1cc(NC(=O)C(=O)N2C[C@@H](C)CC[C@@H]2c2ccc3cn(C4CCN(C)CC4)nc3c2)cnc1N (racemic) [Compound 1096, N-(6-Amino-5-ethyl-3-pyridyl)-2-oxo-2-[rac-(2R,5S)-5-methyl-2-[2-(1-methyl-4-piperidyl)indazol-6-yl]-1-piperidyl]acetamide] | – | < 1 µM | – | – | A (an IC50 ratio greater than or equal to 10 fold) | –
18 | – | – | < 0.05 µM | < 0.05 µM | 0.1 to 1 µM | < 0.05 µM | < 0.1 µM | CCc1cc(NC(=O)C(=O)N2C[C@@H](C)CC[C@@H]2c2ccc3sc(C4CCN(C)CC4)nc3c2)cnc1C [Compound 1100, N-(5-ethyl-6-methylpyridin-3-yl)-2-((2R,5S)-5-methyl-2-(2-(1-methylpiperidin-4-yl)benzo[d]thiazol-5-yl)piperidin-1-yl)-2-oxoacetamide] | – | < 1 µM | – | – | A (an IC50 ratio greater than or equal to 10 fold) | –
